Our source for the T/C values is PubChem BioAssay AID330 (DTP/NCI, 2004).

Molecules are shown by their SMILES. “And” between values parts separate entries of the source, which are not always exact repeats. Equal values may be shown once. Inconclusive results and toxic doses are left out.

For this assay, the system named is P388 leukemia ip, CD2F1 mice, survival T/C. The experiment in a line: NCI In Vivo Anticancer Drug Screen. Data for tumor model P388 Leukemia (intraperitoneal) in CD2F1 (CDF1) mice. The note with it: endpoint: median survival time, higher = longer survival. An outline of the steps: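 Mice carrying the transplanted tumor received test compound or vehicle. Survival was recorded in each group, and the value is the treated-group measurement divided by that of the vehicle-treated control group.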

Setting [1] is: dose: 50.0 mg/kg/injection, schedule: Q01DX005 (ip), vehicle: saline with Tween-80.
The mark [2] stands for this setting: dose: 12.5 mg/kg/injection, schedule: Q01DX009 (ip), vehicle: Klucel (hydroxypropylcellulose) (HPC).
[3] abbreviates: dose: 25.0 mg/kg/injection, schedule: Q01DX009 (ip), vehicle: Klucel (hydroxypropylcellulose) (HPC).
[4] abbreviates: dose: 100.0 mg/kg/injection, schedule: Q01DX005 (ip), vehicle: saline with Tween-80.
[5] abbreviates: dose: 200.0 mg/kg/injection, schedule: Q01DX005 (ip), vehicle: saline with Tween-80.
The mark [6] stands for this setting: dose: 100.0 mg/kg/injection, schedule: Q04DX003 (ip), vehicle: saline.
[7] abbreviates: dose: 200.0 mg/kg/injection, schedule: Q04DX003 (ip), vehicle: saline.
Setting [8] is: dose: 400.0 mg/kg/injection, schedule: Q04DX003 (ip), vehicle: saline.
The mark [9] stands for this setting: dose: 15.0 mg/kg/injection, schedule: Q01DX005 (ip), vehicle: saline with Tween-80.
Setting [10] is: dose: 30.0 mg/kg/injection, schedule: Q01DX005 (ip), vehicle: saline with Tween-80.
Where [11] appears, read: dose: 60.0 mg/kg/injection, schedule: Q01DX005 (ip), vehicle: saline with Tween-80.
The mark [12] stands for this setting: dose: 5.0 mg/kg/injection, schedule: Q01DX009 (ip), vehicle: saline with Tween-80.
[13] abbreviates: dose: 10.0 mg/kg/injection, schedule: Q01DX009 (ip), vehicle: saline with Tween-80.
[14] abbreviates: dose: 50.0 mg/kg/injection, schedule: Q01DX009 (ip), vehicle: saline with Tween-80.
Setting [15] is: dose: 100.0 mg/kg/injection, schedule: Q01DX009 (ip), vehicle: saline with Tween-80.
[16] abbreviates: dose: 50.0 mg/kg/injection, schedule: Q04DX003 (ip), vehicle: saline.
[17] abbreviates: dose: 50.0 mg/kg/injection, schedule: Q01DX009 (ip), vehicle: Klucel (hydroxypropylcellulose) (HPC).
The mark [18] stands for this setting: dose: 100.0 mg/kg/injection, schedule: Q01DX009 (ip), vehicle: Klucel (hydroxypropylcellulose) (HPC).
Setting [19] is: dose: 200.0 mg/kg/injection, schedule: Q01DX009 (ip), vehicle: saline with Tween-80.
[20] abbreviates: dose: 100.0 mg/kg/injection, schedule: Q01DX001 (ip), vehicle: saline with Tween-80.
Where [21] appears, read: dose: 200.0 mg/kg/injection, schedule: Q01DX001 (ip), vehicle: saline with Tween-80.
[22] abbreviates: dose: 400.0 mg/kg/injection, schedule: Q01DX001 (ip), vehicle: saline with Tween-80.

On to `CCn1c2ccccc2c2cc(NC(N)=S)ccc21`, for which the T/C is, setting by setting: (dose: 12.5 mg/kg/injection, schedule: Q01DX005 (ip), vehicle: saline with Tween-80) 100 % of control; (dose: 25.0 mg/kg/injection, schedule: Q01DX005 (ip), vehicle: saline with Tween-80) 102 % of control; under setting [1], 100 % of control and 98 % of control.
Turning to `[Br][Hg][CH]1CCC2CCCC1O2` (configuration not stated), the T/C is, setting by setting: under setting [2], 89 % of control; under setting [3], 90 % of control.
On to `C=CCCc1c(OC)cccc1C1=NC(C)(C)CO1`, for which the T/C runs as follows: under setting [1], 106 % of control; under setting [4], 102 % of control; under setting [5], 100 % of control.
In the case of `c1cc2cc(-c3ccc4cc(-c5ccc6oc(C7=NCCN7)cc6c5)[nH]c4c3)[nH]c2cc1C1=NCCN1`, the T/C was 156 % of control (dose: 50.0 mg/kg/injection, schedule: Q01DX005 (ip), vehicle: Klucel (hydroxypropylcellulose) (HPC)); 114 % of control (dose: 100.0 mg/kg/injection, schedule: Q01DX005 (ip), vehicle: Klucel (hydroxypropylcellulose) (HPC)); 91 % of control (dose: 200.0 mg/kg/injection, schedule: Q01DX005 (ip), vehicle: Klucel (hydroxypropylcellulose) (HPC)).
On to `COc1ccc(OC)c(C2N(C)CCCN2C)c1`, for which the T/C by setting is: (dose: 6.25 mg/kg/injection, schedule: Q01DX009 (ip), vehicle: saline sonified) 95 % of control; (dose: 12.5 mg/kg/injection, schedule: Q01DX009 (ip), vehicle: saline sonified) 90 % of control; (dose: 25.0 mg/kg/injection, schedule: Q01DX009 (ip), vehicle: saline sonified) 100 % of control.
For `C[C@]12CCC[C@H](O)[C@H]1O2`, the T/C is 104 % of control under setting [6], 102 % of control under setting [7] and 102 % of control under setting [8].
As to `CCCCC1CN1C(=N)OCC` (configuration not stated), the T/C is, setting by setting: under setting [9], 100 % of control; (dose: 25.0 mg/kg/injection, schedule: Q01DX005 (ip), vehicle: saline) 100 % of control; under setting [10], 96 % of control; under setting [11], 101 % of control and 95 % of control.
Consider `Oc1cc2c(cc1C/C=C/c1ccccc1)OCO2`, for which the T/C by setting is: (dose: 2.5 mg/kg/injection, schedule: Q01DX009 (ip), vehicle: saline with Tween-80) 101 % of control; under setting [12], 103 % of control; under setting [13], 101 % of control.
On to `Clc1ccc(N=C(c2ccncc2)c2cc(Cl)ccc2Cl)cc1`, for which the T/C runs as follows: under setting [14], 109 % of control; under setting [15], 92 % of control.
Regarding `CCOC(=O)c1cn(C2OC(CO)C(O)C2O)c(=O)nc1N` (configuration not stated), the T/C is 99 % of control under setting [16], 100 % of control under setting [6], 100 % of control under setting [7] and 102 % of control under setting [8].
On to `CC1=C/N\C(C#N)=C(C#N)/N=C/C(C)=C\N\C(C#N)=C(C#N)/N=C\1`, for which the T/C was 92 % of control under setting [17]; 105 % of control under setting [18]; 98 % of control (dose: 200.0 mg/kg/injection, schedule: Q01DX009 (ip), vehicle: Klucel (hydroxypropylcellulose) (HPC)).
Take `Cn1c(=O)oc2c(Br)cc(Br)cc21`: the T/C reads like this: (dose: 50.0 mg/kg/injection, schedule: Q04DX002 (ip), vehicle: Klucel (hydroxypropylcellulose) (HPC)) 101 % of control; (dose: 100.0 mg/kg/injection, schedule: Q04DX002 (ip), vehicle: Klucel (hydroxypropylcellulose) (HPC)) 104 % of control; (dose: 200.0 mg/kg/injection, schedule: Q04DX002 (ip), vehicle: Klucel (hydroxypropylcellulose) (HPC)) 101 % of control.
As for `COC(=O)C1(CC(=O)C2CC2)NC(=S)NC(=O)C1C#N` (configuration not stated), the T/C is, setting by setting: (dose: 60.0 mg/kg/injection, schedule: Q01DX005 (ip), vehicle: Klucel (hydroxypropylcellulose) (HPC)) 103 % of control; (dose: 120.0 mg/kg/injection, schedule: Q01DX005 (ip), vehicle: Klucel (hydroxypropylcellulose) (HPC)) 100 % of control; (dose: 240.0 mg/kg/injection, schedule: Q01DX005 (ip), vehicle: Klucel (hydroxypropylcellulose) (HPC)) 100 % of control.
With `NC(CC(=O)CCl)C(=O)O` (configuration not stated), the T/C under setting [12] was 154 % of control; the T/C (dose: 6.25 mg/kg/injection, schedule: Q04DX003 (ip), vehicle: saline) is 150 % of control; the T/C under setting [13] is 168 % of control; the T/C (dose: 12.5 mg/kg/injection, schedule: Q04DX003 (ip), vehicle: saline) is 166 % of control; the T/C (dose: 20.0 mg/kg/injection, schedule: Q01DX009 (ip), vehicle: saline with Tween-80) is 159 % of control; the T/C under setting [16] is 176 % of control.
Regarding `O=C(/N=C1\N=Nc2nc(CC(=O)c3cccc4ccccc34)c(O)n21)Nc1ccc(Cl)cc1`, the T/C was 96 % of control under setting [1], 103 % of control under setting [4] and 104 % of control under setting [5].
For the compound `COc1cc(C2OCCO2)cc(OC)c1O`, the T/C by setting is: (dose: 50.0 mg/kg/injection, schedule: Q01DX009 (ip), vehicle: saline) 97 % of control; (dose: 100.0 mg/kg/injection, schedule: Q01DX009 (ip), vehicle: saline) 105 % of control; (dose: 200.0 mg/kg/injection, schedule: Q01DX009 (ip), vehicle: saline) 101 % of control.
With `O=C(N=c1nc2ccccn2s1)c1ccccc1`, the T/C is 100 % of control under setting [14], 98 % of control under setting [15] and 104 % of control under setting [19].
`COC(=O)C(CS[C@@H]1CCCC[C@H]1O)NC(C)=O` (some centres not stated): the T/C (dose: 40.0 mg/kg/injection, schedule: Q01DX005 (ip), vehicle: saline) was 92 % of control; the T/C (dose: 60.0 mg/kg/injection, schedule: Q01DX005 (ip), vehicle: saline) is 96 % of control; the T/C (dose: 120.0 mg/kg/injection, schedule: Q01DX005 (ip), vehicle: saline) is 96 % of control.
As for `CCCOP(=O)(NNP(=O)(OCCC)OCCC)OCCC`, the T/C is 106 % of control under setting [14], 116 % of control under setting [15] and 116 % of control under setting [19].
On to `O=c1[nH]ccc2nncn12`, for which the T/C under setting [20] was 100 % of control, the T/C under setting [21] is 106 % of control and the T/C under setting [22] was 99 % of control.
For `Cc1n[nH]c(=O)c(N)c1-c1cc(-c2ccccc2)n[nH]1`, the T/C was 91 % of control under setting [11]; 94 % of control (dose: 120.0 mg/kg/injection, schedule: Q01DX005 (ip), vehicle: saline with Tween-80); 93 % of control (dose: 240.0 mg/kg/injection, schedule: Q01DX005 (ip), vehicle: saline with Tween-80).
Regarding `C=C1OC(C2CCCCC2)=C(C(=O)OCC)C1C` (configuration not stated), the T/C under setting [20] was 100 % of control, the T/C under setting [21] is 94 % of control and the T/C under setting [22] was 100 % of control.
As for `CCOC(=O)COC(=O)C1C(C(N)=O)N(CC(=O)OCC)CCN1CC(=O)OCC` (configuration not stated), the T/C was 101 % of control under setting [1], 99 % of control under setting [4] and 103 % of control under setting [5].
Consider `CC(=O)OCC1OC(Nc2[nH]c(=O)[nH]c(=O)c2C(=O)CCl)C(OC(C)=O)C(OC(C)=O)C1OC(C)=O` (configuration not stated), for which the T/C (dose: 100.0 mg/kg/injection, schedule: Q04DX002 (ip), vehicle: saline with Tween-80) was 121 % of control; the T/C (dose: 200.0 mg/kg/injection, schedule: Q04DX002 (ip), vehicle: saline with Tween-80) was 111 % of control; the T/C (dose: 400.0 mg/kg/injection, schedule: Q04DX002 (ip), vehicle: saline with Tween-80) is 99 % of control.
As to `C=CC#CC#Cc1ccc(C#CC)s1`, the T/C reads like this: under setting [2], 96 % of control; under setting [3], 100 % of control; under setting [17], 105 % of control; under setting [18], 104 % of control.
In the case of `COc1ccc(C2=NN(C(C)=O)C(c3cc(OC)c(OC)cc3N)S2)cc1OC` (configuration not stated) (tested in a mixture with another compound), the T/C is 97 % of control (dose: 7.5 mg/kg/injection, schedule: Q01DX005 (ip), vehicle: saline with Tween-80); 92 % of control under setting [9]; 90 % of control under setting [10].
